# Test: Solid-form stability on compression into a disk (XRPD)
# Assay type: physicochemical
# Conditions: compressed into a disk at 3400 pounds of pressure (117 MPa) for 1 minute, Carver hydraulic press and pellet die
# Text: In various embodiments, the novel betaine cocrystal of epalrestat described herein is stable.
substance,measurement,value
betaine hydrogen diepalrestat [betaine hydrogen diacid cocrystal],change in XRPD pattern after compression,no change in the XRPD pattern
